Reference: US20210323913A1, “SIGMA RECEPTOR BINDERS” (BOARD OF REGENTS, THE UNIVERSITY OF TEXAS SYSTEM, priority 2016, published 2021)
Where two headings read alike, the source gives them in different places.

Key:
D4 = molecular target: T1, D4 (Homo sapiens, UniProt P21917); assay: Radioligand competition binding, D4; conditions: Table 5; Cheng-Prusoff from best fit IC50
T1 sequence (P21917 1-419): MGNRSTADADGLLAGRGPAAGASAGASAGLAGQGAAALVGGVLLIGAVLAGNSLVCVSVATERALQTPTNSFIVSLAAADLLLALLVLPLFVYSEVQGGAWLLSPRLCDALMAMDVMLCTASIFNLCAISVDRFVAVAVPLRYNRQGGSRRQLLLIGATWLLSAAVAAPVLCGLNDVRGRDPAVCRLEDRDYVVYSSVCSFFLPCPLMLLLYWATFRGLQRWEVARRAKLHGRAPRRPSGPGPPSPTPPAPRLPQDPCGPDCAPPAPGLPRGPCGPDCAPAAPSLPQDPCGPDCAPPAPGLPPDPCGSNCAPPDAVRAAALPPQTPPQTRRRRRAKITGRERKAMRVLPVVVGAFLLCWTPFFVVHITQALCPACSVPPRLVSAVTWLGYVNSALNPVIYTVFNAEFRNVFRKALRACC

Alpha1A = Alpha1A (Homo sapiens, UniProt P35348); assay: Radioligand competition binding, Alpha1A; conditions: Table 5; Cheng-Prusoff from best fit IC50
DAT = DAT (Homo sapiens, UniProt Q01959); assay: Radioligand competition binding, DAT; conditions: Table 5; Cheng-Prusoff from best fit IC50
5-HT6 = 5-HT6 (Homo sapiens, UniProt P50406); assay: Radioligand competition binding, 5-HT6; conditions: Table 5; Cheng-Prusoff from best fit IC50
5-HT2B = 5-HT2B (Homo sapiens, UniProt P41595); assay: Radioligand competition binding, 5-HT2B; conditions: Table 5; Cheng-Prusoff from best fit IC50
PBR = PBR (UniProt P16257); assay: Radioligand competition binding, PBR; conditions: Table 5; Cheng-Prusoff from best fit IC50; one value marked (AVE)
D3 = D3 (Homo sapiens, UniProt P35462); assay: Radioligand competition binding, D3; conditions: Table 5; Cheng-Prusoff from best fit IC50; one value marked (AVE)
5-ht5a = 5-ht5a (Homo sapiens, UniProt P47898); assay: Radioligand competition binding, 5-ht5a; conditions: Table 5; Cheng-Prusoff from best fit IC50
sigma 1 receptor = sigma 1 receptor (Homo sapiens, UniProt Q99720); assay: Sigma 1 receptor radioligand competition binding; conditions: Table 1, 7-piperazinyl-tetrahydronaphthalene analogs; read-out: Ki (nM) Sig1R
H2 = H2 (Homo sapiens, UniProt P25021); assay: Radioligand competition binding, H2; conditions: Table 5; Cheng-Prusoff from best fit IC50
5-HT1B = 5-HT1B (Homo sapiens, UniProt P28222); assay: Radioligand competition binding, 5-HT1B; conditions: Table 5; Cheng-Prusoff from best fit IC50
5-HT7 = 5-HT7 (Homo sapiens, UniProt P34969); assay: Radioligand competition binding, 5-HT7; conditions: Table 5; Cheng-Prusoff from best fit IC50
5-HT1D = 5-HT1D (Homo sapiens, UniProt P28221); assay: Radioligand competition binding, 5-HT1D; conditions: Table 5; Cheng-Prusoff from best fit IC50
5-HT2A = 5-HT2A (Homo sapiens, UniProt P28223); assay: Radioligand competition binding, 5-HT2A; conditions: Table 5; Cheng-Prusoff from best fit IC50
D2 = D2 (Homo sapiens, UniProt P14416); assay: Radioligand competition binding, D2; conditions: Table 5; Cheng-Prusoff from best fit IC50
5-HT1A = molecular target: T2, 5-HT1A (Homo sapiens, UniProt P08908); assay: Radioligand competition binding, 5-HT1A; conditions: Table 5; Cheng-Prusoff from best fit IC50
T2 sequence (P08908 1-422): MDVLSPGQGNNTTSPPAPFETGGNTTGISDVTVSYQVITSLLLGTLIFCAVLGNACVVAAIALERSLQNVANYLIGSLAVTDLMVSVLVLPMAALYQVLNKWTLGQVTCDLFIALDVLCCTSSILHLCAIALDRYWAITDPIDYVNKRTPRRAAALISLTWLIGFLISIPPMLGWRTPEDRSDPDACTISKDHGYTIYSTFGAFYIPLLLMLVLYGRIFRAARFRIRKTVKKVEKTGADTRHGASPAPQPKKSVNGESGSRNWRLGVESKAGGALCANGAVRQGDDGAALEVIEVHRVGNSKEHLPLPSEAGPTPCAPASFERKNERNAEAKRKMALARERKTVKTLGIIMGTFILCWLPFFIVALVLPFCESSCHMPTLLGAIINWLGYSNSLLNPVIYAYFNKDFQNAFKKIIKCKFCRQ

sigma 2 receptor = sigma 2 receptor (Homo sapiens, UniProt Q5BJF2); assay: Sigma 2 receptor radioligand competition binding; conditions: for Ki ratio Sig1R/Sig2R: Table 1, ratio of Sig1R Ki to Sig2R Ki
Beta3 = Beta3 (Homo sapiens, UniProt P13945); assay: Radioligand competition binding, Beta3; conditions: Table 5; Cheng-Prusoff from best fit IC50
D1 = D1 (Homo sapiens, UniProt P21728); assay: Radioligand competition binding, D1; conditions: Table 5; Cheng-Prusoff from best fit IC50; some values marked (AVE)
5-HT2C = molecular target: T3, 5-HT2C (Homo sapiens, UniProt P28335); assay: Radioligand competition binding, 5-HT2C; conditions: Table 5; Cheng-Prusoff from best fit IC50
T3 sequence (P28335 33-458): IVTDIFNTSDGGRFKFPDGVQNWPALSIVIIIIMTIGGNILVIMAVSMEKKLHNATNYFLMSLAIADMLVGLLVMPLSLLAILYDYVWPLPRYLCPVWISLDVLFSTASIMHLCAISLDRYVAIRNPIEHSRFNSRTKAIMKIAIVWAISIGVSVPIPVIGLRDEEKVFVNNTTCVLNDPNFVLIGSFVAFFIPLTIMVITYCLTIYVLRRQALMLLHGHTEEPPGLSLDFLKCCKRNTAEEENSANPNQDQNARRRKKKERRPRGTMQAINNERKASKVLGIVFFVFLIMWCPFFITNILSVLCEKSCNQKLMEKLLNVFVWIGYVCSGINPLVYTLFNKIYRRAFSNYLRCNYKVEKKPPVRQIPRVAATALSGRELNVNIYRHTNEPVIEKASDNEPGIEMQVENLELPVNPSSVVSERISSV

Alpha2A = molecular target: T4, Alpha2A (Homo sapiens, UniProt P08913); assay: Radioligand competition binding, Alpha2A; conditions: Table 5; Cheng-Prusoff from best fit IC50
T4 sequence (P08913 1-465): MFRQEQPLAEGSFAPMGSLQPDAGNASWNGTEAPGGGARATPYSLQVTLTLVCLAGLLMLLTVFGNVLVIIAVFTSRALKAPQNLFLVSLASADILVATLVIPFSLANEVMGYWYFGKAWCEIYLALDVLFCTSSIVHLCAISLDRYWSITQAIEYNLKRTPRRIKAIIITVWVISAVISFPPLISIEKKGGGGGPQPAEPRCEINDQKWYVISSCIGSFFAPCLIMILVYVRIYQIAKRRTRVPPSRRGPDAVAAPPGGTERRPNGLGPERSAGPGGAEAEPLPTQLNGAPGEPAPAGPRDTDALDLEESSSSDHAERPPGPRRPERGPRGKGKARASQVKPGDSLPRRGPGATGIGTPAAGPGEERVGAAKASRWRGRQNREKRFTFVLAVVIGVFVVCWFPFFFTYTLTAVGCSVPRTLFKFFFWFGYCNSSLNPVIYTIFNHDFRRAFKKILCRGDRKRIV

D5 = D5 (Homo sapiens, UniProt P21918); assay: Radioligand competition binding, D5; conditions: Table 5; Cheng-Prusoff from best fit IC50
H1 = H1 (Homo sapiens, UniProt P35367); assay: Radioligand competition binding, H1; conditions: Table 5; Cheng-Prusoff from best fit IC50
Alpha1D = Alpha1D (Homo sapiens, UniProt P25100); assay: Radioligand competition binding, Alpha1D; conditions: Table 5; Cheng-Prusoff from best fit IC50
M5 = M5 (Homo sapiens, UniProt P08912); assay: Radioligand competition binding, M5; conditions: Table 5; Cheng-Prusoff from best fit IC50
Alpha2B = Alpha2B (Homo sapiens, UniProt P18089); assay: Radioligand competition binding, Alpha2B; conditions: Table 5; Cheng-Prusoff from best fit IC50
H4 = H4 (Homo sapiens, UniProt Q9H3N8); assay: Radioligand competition binding, H4; conditions: Table 5; Cheng-Prusoff from best fit IC50; value marked (AVE)
H3 = H3 (Homo sapiens, UniProt Q9Y5N1); assay: Radioligand competition binding, H3; conditions: Table 5; Cheng-Prusoff from best fit IC50
[1] = Table 1, 7-piperazinyl-tetrahydronaphthalene analogs, read-out: Ki (nM) Sig2R
[2] = Table 5, Cheng-Prusoff from best fit IC50, read-out: Ki Sigma 2

Chain of D3 (P35462 whole entry): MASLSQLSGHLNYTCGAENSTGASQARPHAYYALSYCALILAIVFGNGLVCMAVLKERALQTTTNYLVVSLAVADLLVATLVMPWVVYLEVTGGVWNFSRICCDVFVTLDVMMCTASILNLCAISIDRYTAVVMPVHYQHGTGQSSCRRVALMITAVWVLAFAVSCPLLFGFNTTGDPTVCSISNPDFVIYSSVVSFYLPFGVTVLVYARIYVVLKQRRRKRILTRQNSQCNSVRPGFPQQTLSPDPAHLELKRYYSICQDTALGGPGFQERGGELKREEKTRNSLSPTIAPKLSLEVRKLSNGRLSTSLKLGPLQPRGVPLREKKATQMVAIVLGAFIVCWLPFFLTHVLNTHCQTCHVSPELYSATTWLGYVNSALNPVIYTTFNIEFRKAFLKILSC
Chain of 5-HT1B (P28222 whole entry, species assumed): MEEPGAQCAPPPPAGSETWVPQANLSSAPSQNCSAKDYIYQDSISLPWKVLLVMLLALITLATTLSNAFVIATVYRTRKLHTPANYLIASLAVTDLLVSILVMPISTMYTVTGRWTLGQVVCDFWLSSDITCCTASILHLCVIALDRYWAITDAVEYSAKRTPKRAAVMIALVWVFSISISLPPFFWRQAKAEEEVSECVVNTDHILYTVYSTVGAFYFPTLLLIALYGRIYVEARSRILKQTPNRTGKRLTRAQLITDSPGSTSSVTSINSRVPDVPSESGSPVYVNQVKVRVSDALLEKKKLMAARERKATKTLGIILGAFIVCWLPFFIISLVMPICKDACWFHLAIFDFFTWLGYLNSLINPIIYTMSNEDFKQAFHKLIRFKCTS
Chain of H2 (P25021 whole entry): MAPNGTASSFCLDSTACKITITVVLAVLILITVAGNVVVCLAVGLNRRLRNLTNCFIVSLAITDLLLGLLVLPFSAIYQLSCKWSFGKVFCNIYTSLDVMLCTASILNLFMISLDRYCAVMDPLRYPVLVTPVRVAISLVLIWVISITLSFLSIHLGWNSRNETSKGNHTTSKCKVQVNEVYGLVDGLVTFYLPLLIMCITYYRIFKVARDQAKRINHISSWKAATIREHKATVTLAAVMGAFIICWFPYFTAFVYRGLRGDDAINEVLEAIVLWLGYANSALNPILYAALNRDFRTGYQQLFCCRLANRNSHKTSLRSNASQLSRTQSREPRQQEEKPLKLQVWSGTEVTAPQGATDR
Chain of 5-HT2B (P41595 whole entry, species assumed): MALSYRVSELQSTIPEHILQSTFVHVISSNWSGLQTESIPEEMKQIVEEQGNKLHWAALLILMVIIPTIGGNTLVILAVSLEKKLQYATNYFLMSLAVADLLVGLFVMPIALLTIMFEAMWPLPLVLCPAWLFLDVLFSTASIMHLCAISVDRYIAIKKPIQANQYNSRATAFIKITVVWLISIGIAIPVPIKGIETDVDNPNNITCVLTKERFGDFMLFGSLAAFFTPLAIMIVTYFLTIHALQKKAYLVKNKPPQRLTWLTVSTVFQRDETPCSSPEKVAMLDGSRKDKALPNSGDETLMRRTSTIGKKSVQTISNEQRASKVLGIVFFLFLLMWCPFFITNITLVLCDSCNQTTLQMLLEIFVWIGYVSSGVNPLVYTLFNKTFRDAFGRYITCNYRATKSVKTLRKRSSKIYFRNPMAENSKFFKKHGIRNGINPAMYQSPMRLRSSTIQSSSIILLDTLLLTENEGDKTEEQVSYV
Chain of sigma 2 receptor (Q5BJF2 whole entry, species assumed): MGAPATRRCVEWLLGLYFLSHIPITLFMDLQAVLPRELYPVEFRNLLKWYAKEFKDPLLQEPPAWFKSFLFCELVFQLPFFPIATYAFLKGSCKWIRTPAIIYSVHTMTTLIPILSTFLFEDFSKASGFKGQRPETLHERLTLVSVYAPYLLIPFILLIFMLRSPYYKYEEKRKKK
Chain of sigma 1 receptor (Q99720 whole entry, species assumed): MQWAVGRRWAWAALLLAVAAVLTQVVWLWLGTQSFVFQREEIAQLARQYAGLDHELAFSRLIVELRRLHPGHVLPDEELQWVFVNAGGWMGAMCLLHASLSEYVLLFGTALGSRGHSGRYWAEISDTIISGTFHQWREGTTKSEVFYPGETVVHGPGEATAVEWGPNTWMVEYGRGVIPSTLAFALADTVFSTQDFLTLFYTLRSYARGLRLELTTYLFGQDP
Chain of 5-HT7 (P34969 whole entry, species assumed): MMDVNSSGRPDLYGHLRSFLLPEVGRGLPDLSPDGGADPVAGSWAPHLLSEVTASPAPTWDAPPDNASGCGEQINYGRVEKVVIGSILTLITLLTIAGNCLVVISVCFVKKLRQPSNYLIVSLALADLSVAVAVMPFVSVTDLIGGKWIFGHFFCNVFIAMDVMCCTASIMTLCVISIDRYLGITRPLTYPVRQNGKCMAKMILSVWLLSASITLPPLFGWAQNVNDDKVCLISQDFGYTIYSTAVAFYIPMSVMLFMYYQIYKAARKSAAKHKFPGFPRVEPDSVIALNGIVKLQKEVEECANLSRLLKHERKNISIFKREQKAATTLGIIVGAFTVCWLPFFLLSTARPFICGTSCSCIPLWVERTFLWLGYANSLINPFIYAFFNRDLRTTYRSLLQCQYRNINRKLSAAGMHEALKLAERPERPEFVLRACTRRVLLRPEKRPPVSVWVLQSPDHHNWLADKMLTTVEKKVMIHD
Chain of 5-HT1D (P28221 whole entry, species assumed): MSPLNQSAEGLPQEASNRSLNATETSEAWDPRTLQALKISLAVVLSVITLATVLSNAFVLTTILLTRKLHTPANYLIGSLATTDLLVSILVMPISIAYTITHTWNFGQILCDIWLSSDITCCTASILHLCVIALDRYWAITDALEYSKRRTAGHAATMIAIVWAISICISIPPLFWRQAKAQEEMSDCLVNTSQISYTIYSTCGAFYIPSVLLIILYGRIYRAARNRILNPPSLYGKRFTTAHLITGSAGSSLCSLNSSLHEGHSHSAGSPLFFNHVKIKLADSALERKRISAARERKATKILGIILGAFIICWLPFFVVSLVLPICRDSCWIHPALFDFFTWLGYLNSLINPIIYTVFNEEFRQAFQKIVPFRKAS
Chain of 5-HT6 (P50406 whole entry, species assumed): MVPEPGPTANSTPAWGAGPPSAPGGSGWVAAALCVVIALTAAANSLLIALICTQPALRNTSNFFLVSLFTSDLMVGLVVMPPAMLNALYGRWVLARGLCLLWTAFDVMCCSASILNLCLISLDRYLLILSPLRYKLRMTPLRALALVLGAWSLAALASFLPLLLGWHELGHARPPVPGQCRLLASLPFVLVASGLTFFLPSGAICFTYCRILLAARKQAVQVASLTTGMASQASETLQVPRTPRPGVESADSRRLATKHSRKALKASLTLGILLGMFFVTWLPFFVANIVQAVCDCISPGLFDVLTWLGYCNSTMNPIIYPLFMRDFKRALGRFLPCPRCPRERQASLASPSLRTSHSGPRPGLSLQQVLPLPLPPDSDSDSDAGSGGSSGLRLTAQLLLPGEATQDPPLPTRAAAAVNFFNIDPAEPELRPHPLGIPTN
Chain of 5-HT2A (P28223 whole entry, species assumed): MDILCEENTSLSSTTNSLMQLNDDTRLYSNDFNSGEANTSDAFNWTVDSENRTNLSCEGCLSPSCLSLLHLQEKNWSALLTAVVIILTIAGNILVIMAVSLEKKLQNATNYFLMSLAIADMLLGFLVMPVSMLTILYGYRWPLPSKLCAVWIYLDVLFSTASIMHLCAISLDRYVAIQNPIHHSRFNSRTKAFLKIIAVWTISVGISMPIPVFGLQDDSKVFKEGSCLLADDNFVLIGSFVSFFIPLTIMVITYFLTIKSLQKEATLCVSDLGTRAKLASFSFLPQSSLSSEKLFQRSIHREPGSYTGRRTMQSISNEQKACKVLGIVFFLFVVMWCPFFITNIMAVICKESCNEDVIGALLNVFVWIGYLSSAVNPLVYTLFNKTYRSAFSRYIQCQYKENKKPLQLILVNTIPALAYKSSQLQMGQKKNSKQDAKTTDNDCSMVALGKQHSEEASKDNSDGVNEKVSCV
Chain of D1 (P21728 whole entry): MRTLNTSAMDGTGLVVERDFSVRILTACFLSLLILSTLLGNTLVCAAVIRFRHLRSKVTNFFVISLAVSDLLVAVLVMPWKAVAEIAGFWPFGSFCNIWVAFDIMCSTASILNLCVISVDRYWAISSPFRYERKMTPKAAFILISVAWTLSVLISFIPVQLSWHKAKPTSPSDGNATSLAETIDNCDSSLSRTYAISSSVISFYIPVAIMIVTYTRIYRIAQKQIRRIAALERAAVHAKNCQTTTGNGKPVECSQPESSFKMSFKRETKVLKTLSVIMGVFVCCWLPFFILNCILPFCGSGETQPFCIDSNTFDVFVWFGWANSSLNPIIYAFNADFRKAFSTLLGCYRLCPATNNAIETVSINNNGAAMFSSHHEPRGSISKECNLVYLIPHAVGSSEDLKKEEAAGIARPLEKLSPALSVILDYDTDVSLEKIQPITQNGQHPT
Chain of Alpha1A (P35348 whole entry): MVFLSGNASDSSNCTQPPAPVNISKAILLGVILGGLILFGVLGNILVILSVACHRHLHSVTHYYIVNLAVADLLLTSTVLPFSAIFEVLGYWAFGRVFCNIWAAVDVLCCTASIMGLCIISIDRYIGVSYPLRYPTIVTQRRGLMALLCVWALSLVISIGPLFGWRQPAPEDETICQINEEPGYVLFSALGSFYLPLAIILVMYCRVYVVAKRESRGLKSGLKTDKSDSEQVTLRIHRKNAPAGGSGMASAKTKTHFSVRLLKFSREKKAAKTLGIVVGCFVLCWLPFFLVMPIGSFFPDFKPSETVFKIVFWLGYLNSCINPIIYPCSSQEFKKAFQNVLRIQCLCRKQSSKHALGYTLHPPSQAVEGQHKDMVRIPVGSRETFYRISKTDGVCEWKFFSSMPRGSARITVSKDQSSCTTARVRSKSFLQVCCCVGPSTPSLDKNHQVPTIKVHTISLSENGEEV

SMILES	Ki (D4) [µM]	Ki (Alpha1A) [nM]	Ki (5-HT6) [nM]	Ki (5-HT2B) [nM]	Ki (PBR) [µM]	Ki (D3) [nM]	Ki (sigma 1 receptor) [nM]	Ki (H2) [nM]	Ki (5-HT1B) [nM]	Ki (5-HT7) [nM]	Ki (5-HT1D) [nM]	Ki (5-HT2A) [nM]	Ki (5-HT1A) [nM]	Ki (sigma 2 receptor; [1]) [nM]	Ki ratio Sig1R/Sig2R (sigma 2 receptor)	Ki (D1) [nM]	Ki (sigma 2 receptor; [2]) [nM]	also measured
CCCN(C(=O)OCc1ccccc1)C1CCCc2ccc(N3CCN(CCC(=O)OCC)CC3)cc21 (stereo not drawn) [MDW-1-191, Ethyl 3-(4-(8-(((benzyloxy)carbonyl)(propyl)amino)-5,6,7,8-tetrahydronaphthalen-2-yl)piperazin-1-yl)propanoate]	1.72	1410	1560	771	1.67	315	2360	1290	441	891	1140	1730	569	19	124			Ki (DAT): > 10 µM; Ki (5-ht5a): 1530 nM; Ki (D2): 2410 nM
CN(C(=O)OCc1ccccc1)C1CCCc2ccc(N3CCN(CCCO)CC3)cc21 (stereo not drawn) [MDW-1-177, Benzyl (7-(4-(3-hydroxypropyl)piperazin-1-yl)-1,2,3,4-tetrahydronaphthalen-1-yl)(methyl)carbamate]	> 10		1230	99		597	474	291	261	585	136	632	528	21	23	1350	21	Ki (Beta3): 8.04 µM
CCCN1CCN(c2ccc3c(c2)C(N(C)C(=O)OCc2ccccc2)CCC3)CC1 (stereo not drawn) [MDW-2-76, Benzyl methyl(7-(4-propylpiperazin-1-yl)-1,2,3,4-tetrahydronaphthalen-1-yl)carbamate]	6.66	2360	778	100	8.33	438	200	302	362	459	135	315	156	6	36	690	5.5	Ki (5-HT2C): 762 nM; Ki (Alpha2A): 1030 nM; Ki (D5): 3.96 µM; Ki (H1): 20 nM; Ki (Alpha1D): 2600 nM; Ki (M5): 6.62 µM; Ki (Alpha2B): 3.33 µM; Ki (H4): 5.88 µM; Ki (H3): 1350 nM
